Reference: patent US20230391727A1, “ANALOGUES OF PENTAMIDINE AND METHODS FOR TREATING INFECTIONS” (Auransa Inc., priority 2020, published 2023)
≈ marks a conversion by molar mass, not a printed value. Read-outs that look alike come from different tables or passages of the source.

Columns and labels:
Format in all cases: cell-based
[1] = test system: Candida parapsilosis CP2; test: Anti-fungal MIC assay; conditions: Lodderomyces parapsilosis
Protocol: (§1) The first round of testing included Candida parapsilosis, Candida krusei, Paecilomyces variotii, Candida albicans, Aspergillus fumigatus, and Blastomyces dermatitidis. […] The second round of testing included Candida parapsilosis, Candida krusei, Candida albicans, Candida auris, Candida glabrata, Candida guilliermondii, and Cryptococcus neoformans.
(§2) Stock solutions of the investigational agent were prepared at concentrations 100-times the highest concentration to be tested (6400 μg/ml) using dimethyl sulfoxide. Aliquots of the stock solutions were dispensed into polystyrene vials and stored at −20° C.
(§3) The synthetic medium RPMI-1640 (with glutamine, without bicarbonate, and with phenol red) was used. The RPMI was buffered to a pH of 7.0+0.1 at 25° C. with 0.165M MOPS (3-[N-morpholino] propanesulfonic acid). Sterile U-shaped 96-well cell culture plates were used to perform the MIC assays. Dilutions of the DMSO stocks were prepared in RPMI to achieve 2× concentrations. After the dilutions of the working 2× investigational antifungal solutions were prepared, 0.1 ml of each concentration was transferred into a pre-specified column of the U-shaped 96-well cell culture plate using sterile pipettes.
(§4) Fungal isolates were grown on Sabouraud dextrose agar (yeasts) or potato flake agar (filamentous fungi) and cells were collected after an appropriate period of growth for each species being evaluated (e.g., 48-72 hours for yeasts and 7 days for filamentous fungi). The fungi were suspended in sterile distilled water, and the densities of the fungal suspension were read using a spectrophotometer and adjusted to an appropriate optical density specific for each fungal species. The fungal suspension of each isolate was then diluted in RPMI. A sufficient volume of the test inoculum was prepared to directly inoculate 0.1 ml into each test well of the 96-well cell culture plate. Final inoculum ranges were dependent on the fungal species to be tested (e.g., 0.4×103 to 5×10^3 cells/ml for yeasts and dimorphic fungi, and 0.4×104 to 5×10^4 cells/ml for filamentous fungi). Each well of the 96-well cell culture plate containing the investigational antifungal compounds (0.1 ml volume) was inoculated on the day of the assay with 0.1 ml of the fungal suspension. Growth control wells contained 0.1 ml of fungal suspension and 0.1 ml of the growth medium without antifungal agents. The media control well contained 0.2 ml of the growth medium.
(§5) The microdilution trays were incubated at 35° C. without agitation. […] One positive comparator/control was used for yeast (fluconazole) and one was used for filamentous fungi (voriconazole).

[2] = test system: Candida guilliermondii Cgui1; test: Anti-fungal MIC assay; conditions: Meyerozyma guilliermondii
Protocol: as §1, §2, §3, §4, §5

[3] = test system: Candida parapsilosis CP1; test: Anti-fungal MIC assay
Protocol: as §1, §2, §3, §4, §5

[4] = test system: Cryptococcus neoformans USC 1597; test: Anti-fungal MIC assay
Protocol: as §1, §2, §3, §4, §5

[5] = test system: Cryptococcus neoformans CN3; test: Anti-fungal MIC assay
Protocol: as §1, §2, §3, §4, §5

[6] = test system: Paecilomyces variotii MYA-3630; test: Anti-fungal MIC assay
Protocol: as §1, §2, §3, §4, §5

[7] = test system: Candida glabrata CG3; test: Anti-fungal MIC assay; conditions: Nakaseomyces glabratus
Protocol: as §1, §2, §3, §4, §5

[8] = test system: Candida krusei ATCC6258; test: Anti-fungal MIC assay; conditions: Pichia kudriavzevii, second round (Table 6)
Protocol: as §1, §2, §3, §4, §5

[9] = test system: Candida albicans CA5; test: Anti-fungal MIC assay
Protocol: as §1, §2, §3, §4, §5

[10] = test system: Candida guilliermondii Cgui2; test: Anti-fungal MIC assay; conditions: Meyerozyma guilliermondii
Protocol: as §1, §2, §3, §4, §5

[11] = test system: Candida glabrata 05-62; test: Anti-fungal MIC assay
Protocol: as §1, §2, §3, §4, §5

[12] = test system: Candida auris DI17-48; test: Anti-fungal MIC assay; conditions: Candidozyma auris
Protocol: as §1, §2, §3, §4, §5

[13] = test system: Candida parapsilosis CP3; test: Anti-fungal MIC assay; conditions: Lodderomyces parapsilosis
Protocol: as §1, §2, §3, §4, §5

[14] = test system: Candida albicans CA6; test: Anti-fungal MIC assay
Protocol: as §1, §2, §3, §4, §5

[15] = test system: Candida guilliermondii Cgui3; test: Anti-fungal MIC assay; conditions: Meyerozyma guilliermondii
Protocol: as §1, §2, §3, §4, §5

[16] = test system: Candida glabrata 05-761; test: Anti-fungal MIC assay
Protocol: as §1, §2, §3, §4, §5

[17] = test system: Candida albicans ATCC90028; test: Anti-fungal MIC assay
Protocol: as §1, §2, §3, §4, §5

[18] = test system: Candida albicans SC5314; test: Anti-fungal MIC assay
Protocol: as §1, §2, §3, §4, §5

[19] = test system: Candida parapsilosis ATCC22019; test: Anti-fungal MIC assay; conditions: Lodderomyces parapsilosis
Protocol: as §1, §2, §3, §4, §5

[20] = test system: Candida albicans CA3; test: Anti-fungal MIC assay
Protocol: as §1, §2, §3, §4, §5

[21] = test system: Candida auris DI17-46; test: Anti-fungal MIC assay; conditions: Candidozyma auris
Protocol: as §1, §2, §3, §4, §5

[22] = test system: Candida albicans 43001; test: Anti-fungal MIC assay
Protocol: as §1, §2, §3, §4, §5

[23] = test system: Candida auris DI17-47; test: Anti-fungal MIC assay; conditions: Candidozyma auris
Protocol: as §1, §2, §3, §4, §5

[24] = test system: Cryptococcus neoformans H99; test: Anti-fungal MIC assay
Protocol: as §1, §2, §3, §4, §5

[25] = test system: Staphylococcus aureus VRS-2 (VRSA); test: MIC assay against gram positive and antibiotic-resistant S. aureus; conditions: Staphylococcus aureus, VRSA
Protocol: (§6) The MICs of vancomycin and linezolid were determined as quality controls and the MIC values of each strain met the acceptance criteria based on PDS historical reference data.
(§7) The direct colony suspension method was used to prepare inoculated broth. Isolated colonies were taken from an 18-24 h culture plate. Optical density measurements (OD620 nm) were used to estimate the bacterial density. The test article, compound 3, and reference control stock solutions were prepared in 100% DMSO as 50× stock solutions. The 50× stock solutions were diluted by 2-fold serial titrations with 100% DMSO for a total of 11 concentrations. A 4 μL aliquot of each dilution was added to 196 μL of cation-adjusted Mueller Hinton Broth II medium seeded with the organism in wells of a 96 well plate. The final vehicle concentration was two percent (2%) in all assay wells. The final bacterial count was 2 to 8×10^5 CFU/mL. The final compound 3 concentration range was 16 to 0.016 μg/mL. Each test substance dilution was evaluated in duplicate on one test occasion. Vehicle-control and reference controls were used as blank and positive controls, respectively. Plates were incubated at 35-37° C. for 18 h. The test plates were visually examined and each well was visually scored for growth or complete inhibition of growth. The MIC value was recorded.

[26] = test system: Staphylococcus aureus ATCC 33591 (MRSA); test: as above; conditions: Staphylococcus aureus
Protocol: as §6, §7

[27] = test system: Staphylococcus aureus BAA-1556 (MRSA); test: as above; conditions: Staphylococcus aureus
Protocol: as §6, §7

[28] = test system: Staphylococcus aureus ATCC 19636; test: as above; conditions: Staphylococcus aureus, ATCC19636
Protocol: as §6, §7

[29] = read-out: MIC, 50% growth inhibition
[30] = read-out: MIC, 100% growth inhibition

OC(Cn1cncn1)(Cn1cncn1)c1ccc(F)cc1F [Fluconazole, reference compound]
MIC [1, 29]: 0.5 µg/mL (≈ 1.63 µM)
MIC [1, 30]: 0.5 µg/mL (≈ 1.63 µM)
MIC [2, 29]: 1 µg/mL (≈ 3.27 µM)
MIC [2, 30]: 4 µg/mL (≈ 13.1 µM)
MIC [3, 29]: 0.5 µg/mL (≈ 1.63 µM)
MIC [3, 30]: 1 µg/mL (≈ 3.27 µM)
MIC ([4]; USC1597, read-out: MIC, 50% growth inhibition): 4 µg/mL (≈ 13.1 µM)
MIC ([4]; USC1597, read-out: MIC, 100% growth inhibition): 8 µg/mL (≈ 26.1 µM)
MIC [5, 29]: > 64 µg/mL
MIC [5, 30]: > 64 µg/mL
MIC ([6]; MYA3630, read-out: MIC, 50% growth inhibition): 16 µg/mL (≈ 52.2 µM)
MIC ([6]; MYA3630, read-out: MIC, 100% growth inhibition): 32 µg/mL (≈ 104 µM)
MIC [7, 29]: 0.5 µg/mL (≈ 1.63 µM)
MIC [7, 30]: 64 µg/mL (≈ 209 µM)
MIC ([8]; ATCC6258, C. krusei ATCC 6258, read-out: MIC, 50% growth inhibition): 16 µg/mL (≈ 52.2 µM)
MIC ([8]; ATCC6258, read-out: MIC, 100% growth inhibition, C. krusei ATCC 6258): 32 µg/mL (≈ 104 µM)
MIC [9, 29]: 0.25 µg/mL (≈ 0.816 µM)
MIC [9, 30]: > 64 µg/mL
MIC [10, 29]: 2 µg/mL (≈ 6.53 µM)
MIC [10, 30]: 4 µg/mL (≈ 13.1 µM)
MIC ([11]; Nakaseomyces glabratus, 0562, read-out: MIC, 50% growth inhibition): > 64 µg/mL
MIC ([11]; Nakaseomyces glabratus, 0562, read-out: MIC, 100% growth inhibition): > 64 µg/mL
MIC ([12]; DI1748, read-out: MIC, 50% growth inhibition): 2 µg/mL (≈ 6.53 µM)
MIC ([12]; DI1748, read-out: MIC, 100% growth inhibition): 16 µg/mL (≈ 52.2 µM)
MIC [13, 29]: 1 µg/mL (≈ 3.27 µM)
MIC [13, 30]: 1 µg/mL (≈ 3.27 µM)
MIC [14, 29]: 0.25 µg/mL (≈ 0.816 µM)
MIC [14, 30]: > 64 µg/mL
MIC [15, 29]: 2 µg/mL (≈ 6.53 µM)
MIC [15, 30]: 4 µg/mL (≈ 13.1 µM)
MIC ([16]; Nakaseomyces glabratus, 05761, read-out: MIC, 50% growth inhibition): 8 µg/mL (≈ 26.1 µM)
MIC ([16]; Nakaseomyces glabratus, 05761, read-out: MIC, 100% growth inhibition): 32 µg/mL (≈ 104 µM)
MIC [17, 29]: ≤ 0.125 µg/mL
MIC [17, 30]: > 64 µg/mL
MIC [18, 29]: 0.25 µg/mL (≈ 0.816 µM)
MIC [18, 30]: > 64 µg/mL
MIC ([19]; ATCC22019, C. parapsilosis ATCC 22019, second round (Table 6), read-out: MIC, 50% growth inhibition): 2 µg/mL (≈ 6.53 µM)
MIC ([19]; ATCC22019, Candida parapsilosis ATCC22019, first round (Table 5), read-out: MIC, 50% growth inhibition): 1 µg/mL (≈ 3.27 µM)
MIC ([19]; ATCC22019, read-out: MIC, 100% growth inhibition, C. parapsilosis ATCC 22019, second round (Table 6)): 2 µg/mL (≈ 6.53 µM)
MIC ([19]; ATCC22019, read-out: MIC, 100% growth inhibition, Candida parapsilosis ATCC22019, first round (Table 5)): 2 µg/mL (≈ 6.53 µM)
MIC [20, 29]: > 64 µg/mL
MIC [20, 30]: > 64 µg/mL
MIC ([21]; DI1746, read-out: MIC, 50% growth inhibition): > 64 µg/mL
MIC ([21]; DI1746, read-out: MIC, 100% growth inhibition): > 64 µg/mL
MIC [22, 29]: > 64 µg/mL
MIC [22, 30]: > 64 µg/mL
MIC ([23]; DI1747, read-out: MIC, 50% growth inhibition): > 64 µg/mL
MIC ([23]; DI1747, read-out: MIC, 100% growth inhibition): > 64 µg/mL
MIC [24, 29]: 16 µg/mL (≈ 52.2 µM)
MIC [24, 30]: 32 µg/mL (≈ 104 µM)

CN[C@H](CC(C)C)C(=O)N[C@H]1C(=O)N[C@@H](CC(N)=O)C(=O)N[C@H]2C(=O)N[C@H]3C(=O)N[C@H](C(=O)N[C@H](C(=O)O)c4cc(O)cc(O)c4-c4cc3ccc4O)[C@H](O)c3ccc(c(Cl)c3)Oc3cc2cc(c3O[C@@H]2O[C@H](CO)[C@@H](O)[C@H](O)[C@H]2O[C@H]2C[C@](C)(N)[C@H](O)[C@H](C)O2)Oc2ccc(cc2Cl)[C@H]1O [Vancomycin]
MIC [25]: > 64 µg/mL
MIC [26]: 0.5 µg/mL (≈ 0.345 µM)
MIC [27]: 0.5 µg/mL (≈ 0.345 µM)
MIC [28]: 0.5 µg/mL (≈ 0.345 µM)
